Source: patent US4851338A, “Method for diagnosing the presence of bacteria” (Biocarb AB, priority 1982, dated 1989)

Tests used:
[1] = system: haemagglutination between GRBC and Bordetella pertussis bacteria or fimbriae thereof; experiment: Inhibition of haemagglutination of goose erythrocytes (GRBC) with Bordetella pertussis; type: cell-based; conditions: for minimal effective concentration: Bordetella pertussis, Erythrocyte, 4 h, read-out: Minimum inhibitory concentration
Description: In the tests bacteria of the type Bordetella pertussis newly sampled from an individual suffering from whooping cough were used. The bacteria were cultivated on CFA-agar at +37° C. for 18 hours. The bacterial growth was slurried in PBS, pH 7.2 to a density of 1×10^10 bacteria/ml. Fimbriae from the bacterium were obtained in the following manner:
The bacteria were cultivated on Roux flasks with CFA-agar. After incubation at +37° for 24 hours the bacteria were harvested by adding 10 ml PBS/flask and sterile glass balls. The flasks were shaken and the bacterial suspension removed. The bacteria were pelletized by centrifugation (3000×g, +4°, 30 min.). The supernatant was removed by suction. The bacteria were resuspended in 10 ml PBS and the suspension was treated in a Waring blendor 2 x 20 seconds. The suspension was centrifuged (5000×g, +4°, 30 min.) to pelletize the bacteria. The supernatant containing fimbriae was removed by suction. The bacterial pellet is resuspended, treated in a Waring blender and after centrifugation the supernatant is again recovered. The two supernatants are pooled and ammonium sulphate is added to a concentration of 30 %. After stirring the supernatants are allowed to stand at +4° C. for 18 hours, centrifugation then taking place at 5000 ×g. The supernatant was separated and the precipitation was dialyzed against PBS. The solubilized fimbriae fraction was precipitated with ammonium sulphate once more and dialyzed.
Haemagglutination is performed using erythrocytes from geese (GRBC) suspended to a concentration of 3% v/w in PBS. The agglutination tests were carried out so that 50 μl GRBC were mixed with 2-step dilution of antigen 50 μl bacterial suspension or 50 μl fimbriae suspension and 50 μl PBS in microtitre plates. The plates were sealed with Parafilm and incubated at […] for 4 hours and were then recorded. The last well wherein agglutination could be read by the eye is considered as 1 haemagglutinating unit (1 HU).
In the inhibition experiments there were added instead of PBS 50 μl of an oligosaccharide solution, the inhibiting capacity was studied. […]

[2] = system: adhesion of S. saprophyticus to urinary epithelial cells; experiment: Inhibition of adherence of S. saprophyticus to urinary epithelial cells; type: cell-based, Staphylococcus saprophyticus; conditions: Staphylococcus saprophyticus, Epithelial cell, 0.75 h, read-out: reduction of the number of adhering bacteria
Description: Cells from urinary epithelium were suspended in cell cultivation medium RPMI 1640 (Flow Ltd) to a concentration of 10^5 cells/ml.
Microorganisms of the type S. saprophyticus were suspended in RPMI 1640 to a concentration of 10^9 bacteria/ml. Oligosaccharides which were tested for their ability of preventing adhesion of S. saprophyticus to urinary epithelial cells were dissolved in RPMI 1640 to a concentration of 5 mg/ml. In the experiments 1 ml of the oligosaccharide solution was incubated with 0.1 ml bacterial suspension at 37° C. for 30 minutes. Urinary epithelial cells were incubated with the bacterial suspension incubated in advance as described above with oligosaccharide solution for 45 minutes at 37° C. As a control there was used a bacterial suspension preincubated with 1 ml RPMI 1640.
Incubated samples were filtrated through a 12μ filter and washed 3 times with PBS. The filter was pressed against microscope slides for a few seconds, the slides being then fixed in methanol for 10 minutes. The slides were dried in air and coloured with acridine orange for 2 minutes. The slides were washed, dried in air and studies in fluorescence microscope. The number of bacteria per cell was counted. In each experiment 50 cells were counted.

S. saprophyticus = experiment: Removal of S. saprophyticus from an infected surface (disinfection); design: species or system Staphylococcus saprophyticus; conditions: 0.1 percent by weight aqueous solution, cotton pad
Description: A 0.1 percent by weight aqueous solution of the compound β-D-Galp-(1-4)-D-GNAc is prepared and applied by using a cotton pad on a surface infected by S. saprophyticus.

[3] = system: haemagglutination between sheep erythrocytes and S. saprophyticus bacteria (Mc 2 and Mc 194); experiment: Inhibition of haemagglutination of sheep erythrocytes with Staphylococcus saprophyticus; type: cell-based; conditions: for minimal effective concentration: Staphylococcus saprophyticus, Erythrocyte, read-out: Minimum inhibitory con.
Description: In the tests the bacteria S. saprophyticus strains, both isolated from urine from patents having urinary tract infection, were used. The bacteria were cultivated in tryptone broth over night, pelletized by means of centrifugation and washed twice with PBS, pH 7.2. Haemagglutination was performed using erythrocytes from sheep obtained from sheep blood and washed twice with 0.85 % saline.
In the haemagglutination-indication experiments microtitre plates (Limbo Sc. Comp. Inc) were used. 25 μl of bacterial suspension were titrated in PBS by two-step titre steps, 25 μl of 1% erythrocyte suspension being then added. The haemagglutination titre was determined after incubation of the plates for 2-4 hours in room temperature.
In the inhibition experiments serial dilutions of the relevant inhibitor (50 μl/well) and 25 μl of bacterial suspension diluted to contain 2 HU haemagglutinating units of bacteria were used. The plates were incubated for 30 minutes at 37° C., 25 μl of the erythrocyte suspension being then added to each well.

[4] = system: NK-cells activity (lymphocytes) against K-562 cells; experiment: Inhibition of NK-cells activity (chromium release cytotoxicity of lymphocytes against K-562); type: cell-based, human; conditions: for % specific cytotoxicity: ratio 20:1; for cytolytic effect after preincubation with the oligosaccharides: in concentrations down to 0.3 mg/ml
Description: Lymphocytes isolated from peripheral blood drained from normal donors have the ability of exerting a cytotoxic, (i.e. cell killing activity against certain types of cells in culture. In the instant example there is used a human leukemia cell line called K-562 as a target cell for such cytolytic activity.
Method: K-562 cells intracellularly labelled with radioactive chromium are incubated with effector cells (lymphocytes) for 4 hours at 37° C. The cytotoxic effect is measured as the quantity of isotope released in relation to remaining isotope in the target cells. For details see Malmstrom, P., Jonsson, Å, and Sjogren, H.O. "Countercurrent distribution of lymphocytes from human peripheral blood in an aqueous two-phase system. II. Separation into subsets of lymphocytes with distinctive functions". Cell Immunol. 53:51-64, 1980. For studying inhibiting substances effector cells (6×10^6 cells/ml) are preincubated with the respective oligosaccharides diluted in cultivating medium for half an hour at 37° C. After washing with centrifugation the effector cells are transferred directly to the target cells.

[5] = 0.3 mg/ml oligosaccharide, experiment 1 (without inhibitor 22.3)
[6] = 0.3 mg/ml oligosaccharide, experiment 2 (without inhibitor 32.0)
[7] = 1 mg/ml oligosaccharide, experiment 1 (without inhibitor 22.3)
[8] = 1 mg/ml oligosaccharide, experiment 2 (without inhibitor 32.0)
[9] = 3 mg/ml oligosaccharide, experiment 1 (without inhibitor 22.3)
[10] = 3 mg/ml oligosaccharide, experiment 2 (without inhibitor 32.0)

Molecule | minimal effective concentration [1] | inhibition at 5000 µg/mL [2] | removal of the bacterium from the surface (S. saprophyticus) | minimal effective concentration [3] | % specific cytotoxicity [4, 5] | % specific cytotoxicity [4, 6] | % specific cytotoxicity [4, 7] | % specific cytotoxicity [4, 8] | % specific cytotoxicity [4, 9] | % specific cytotoxicity [4, 10] | cytolytic effect after preincubation with the oligosaccharides [4] | Minimum inhibitory con. ([3]; Inhibition of haemagglutination, S. saprophyticus Mc 2 and Mc 194, 2 HU bacteria) | Minimum inhibitory concentration ([1]; Inhibition of haemagglutination, 3% GRBC, 2-4 HU bacteria or fimbriae, +44° C., 4 hours)
CC(=O)N[C@H]1[C@H](O[C@@H]2[C@@H](OC[C@H]3O[C@@H](O[C@H]4[C@H](O)[C@@H](NC(C)=O)C(O)O[C@@H]4CO)[C@@H](O)[C@@H](O[C@H]4O[C@H](CO)[C@@H](O)[C@H](O)[C@@H]4O[C@@H]4O[C@H](CO)[C@@H](O[C@@H]5O[C@H](CO)[C@H](O)[C@H](O)[C@H]5O)[C@H](O)[C@H]4NC(C)=O)[C@@H]3O)O[C@H](CO)[C@@H](O)[C@@H]2O)O[C@H](CO)[C@@H](O[C@@H]2O[C@H](CO)[C@H](O)[C@H](O)[C@H]2O)[C@@H]1O (stereo partly shown) [drawing 7] | 175 µg/mL |  |  |  |  |  |  |  |  |  |  |  | 
CC(=O)N[C@H]1C(O)O[C@H](CO)[C@@H](O[C@@H]2O[C@H](CO)[C@H](O)[C@H](O)[C@H]2O)[C@@H]1O (stereo partly drawn) [β-Galp-(1-4)-GNAc] |  | ~85% | effective removal of the bacterium from the surface | 300 µg/mL |  |  |  |  |  |  |  |  | 
Asialofetuin |  |  |  |  | 10% | 15% | 7.0% | 5.0% | 1.5% | 1.0% | inhibited | 125 µg/mL | 150 µg/mL
CC(=O)N[C@H]1[C@H](O[C@@H]2[C@@H](OC[C@H]3O[C@@H](O[C@H]4[C@H](O)[C@@H](NC(C)=O)C(O)O[C@@H]4CO)[C@@H](O)[C@@H](O)[C@@H]3O)O[C@H](CO)[C@@H](O)[C@@H]2O)O[C@H](CO)[C@@H](O[C@@H]2O[C@H](CO)[C@H](O)[C@H](O)[C@H]2O)[C@@H]1O (stereo partly drawn) [GM1 -penta, β-Galp-(1-4)-β-GNAcp-(1-2)-α-Manp-(1-6)-β-Manp-(1-4)-GNAc] | 675 µg/mL |  |  | 250 µg/mL | 16.8% | 13.9% | 6.5% | 2.7% | -1.4% | 0.0% | inhibited |  | 
